pIC50: −log10 of the molar value. Like-named read-outs stand apart in the source and are kept apart here.
Experiments:
[1] = Log D by shake flask method (octanol / PBS pH 7.4, HPLC); format: physicochemical; conditions: octanol / PBS pH 7.4, shake flask
Summary of the method: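 Log D is derived by HPLC measurement of how the compound distributes between octanol and pH 7.4 phosphate-buffered saline in a shake flask.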

[2] = target: T1, recombinant human transglutaminase 2 (Homo sapiens, UniProt P21980); test: Transglutaminase assay: incorporation of dansylcadaverine into dimethylcasein (DCC-assay); format: biochemical; conditions: recombinant human TG2 10 nM, dansylcadaverine/dimethylcasein; read-out: IC50 TG2
T1 sequence (P21980 1-687): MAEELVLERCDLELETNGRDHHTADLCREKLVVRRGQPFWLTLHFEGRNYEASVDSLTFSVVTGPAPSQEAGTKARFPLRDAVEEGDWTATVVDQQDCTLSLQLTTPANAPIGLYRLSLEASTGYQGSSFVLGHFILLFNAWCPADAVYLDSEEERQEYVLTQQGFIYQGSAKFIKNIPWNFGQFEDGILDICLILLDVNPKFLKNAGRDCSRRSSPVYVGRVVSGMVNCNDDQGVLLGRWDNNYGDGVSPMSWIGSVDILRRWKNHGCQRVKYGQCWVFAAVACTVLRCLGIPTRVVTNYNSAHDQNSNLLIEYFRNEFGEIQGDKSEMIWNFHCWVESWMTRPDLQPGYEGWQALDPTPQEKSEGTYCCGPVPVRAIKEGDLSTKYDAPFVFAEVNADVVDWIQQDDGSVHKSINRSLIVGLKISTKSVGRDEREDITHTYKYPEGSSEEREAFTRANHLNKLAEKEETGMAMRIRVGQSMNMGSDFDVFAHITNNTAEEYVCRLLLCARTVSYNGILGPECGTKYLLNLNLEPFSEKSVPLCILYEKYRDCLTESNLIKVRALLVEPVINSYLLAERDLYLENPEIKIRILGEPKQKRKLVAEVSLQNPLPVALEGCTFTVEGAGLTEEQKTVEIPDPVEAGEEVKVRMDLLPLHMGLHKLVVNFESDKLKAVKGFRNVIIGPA
Summary of the method: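 Recombinant human TG2 (10 nM final) incorporates dansylcadaverine (16.7 μM) into N,N-dimethylcasein (4 μM) in Tris-HCl buffer, pH 8.0, with 10 mM CaCl2 and 10 mM glutathione. Fluorescence (λex 330, λem 500 nm) followed 30 min. The slope between 20–30 min gives activity versus DMSO control, and IC50 comes from the concentration–activity plot.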

[3] = Caco-2 permeability assay (CacoReady kit); format: in vitro ADME; conditions: human
Summary of the method: (§1)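 Intestinal permeability modelled with kit-supplied Caco-2 barriers, run as the maker specifies; each compound reported as Papp.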

[4] = test system: Caco-2 barrier; test: Caco-2 permeability assay (CacoReady kit); format: in vitro ADME
Summary of the method: as §1

| SMILES | logD ([1]; read-out: logD) | pIC50 [2] | Papp [3] [×10⁻⁶ cm/s] | logD [1] | Papp [4] |
| --- | --- | --- | --- | --- | --- |
| CCNC(=O)C(=O)CC[C@H](NC(=O)C1CN2CCC1CC2)C(=O)Nc1cccn(CC(=O)NC2(C#N)C3CC4CC(C3)CC2C4)c1=O (stereo partly drawn) [Compound I-63, (S)-N1-ethyl-N6-(1-(2-(2-carbonitrileadamantane-2-amino)-2-oxoethyl)-2-oxo-1,2-dihydropyridin-3-yl)-2-oxo-5-((3S,4R)-quinuclidine-3-carboxamido)hexanediamide] | < 1 | 6.22 to 6.82 | < 1 |  |  |
| CCNC(=O)C(=O)CC[C@H](NC(=O)c1cc(Br)c(Br)s1)C(=O)Nc1cccn(CC(=O)NC2C3CC4CC(C3)CC2C4)c1=O (stereo partly drawn) [Compound I-53, (S)-2-(4,5-dibromothiophene-2-carboxamido)-N6-ethyl-N1-(1-(2-(2-adamantylamino)-2-oxoethyl)-2-oxo-1,2-dihydropyridin-3-yl)-5-oxohexanediamide] | 3 to 5 | > 6.82 | 1 to 10 |  |  |
| CCNC(=O)C(=O)CC[C@H](NC(=O)c1cn(C)cn1)C(=O)Nc1cccn(CC(=O)NC23CC4CC(C)(CC(C)(C4)C2)C3)c1=O [Compound I-22, (S)-N1-ethyl-N6-(1-(2-(3,5-dimethyladamantane-1-amino)-2-oxoethyl)-2-oxo-1,2-dihydropyridin-3-yl)-5-(1-methyl-1H-imidazole-4-carboxamido)-2-oxohexanediamide] | 1 to 3 | 5.46 to 6.22 | < 1 |  |  |
| CCNC(=O)C(=O)CC[C@H](NC(=O)c1csc2nc(C)cn12)C(=O)Nc1cccn(CC(=O)NC2C3CC4CC(C3)CC2C4)c1=O (stereo partly drawn) [Compound I-96, (S)-N1-ethyl-N6-(1-(2-(2-adamantylamino)-2-oxoethyl)-2-oxo-1,2-dihydropyridin-3-yl)-5-(6-methylimidazo[2,1-b]thiazole-3-carboxamido)-2-oxohexanediamide] | 3 to 5 | 5.46 to 6.22 | < 1 |  |  |
| CCNC(=O)C(=O)CC[C@H](NC(=O)c1sc(-c2ccccc2)nc1C)C(=O)Nc1cccn(CC(=O)NC2C3CC4CC(C3)CC2C4)c1=O (stereo partly drawn) [Compound I-42, (S)-N1-ethyl-N6-(1-(2-(2-adamantylamino)-2-oxoethyl)-2-oxo-1,2-dihydropyridin-3-yl)-5-(4-methyl-2-phenylthiazole-5-carboxamido)-2-oxohexanediamide] | 3 to 5 | 6.22 to 6.82 | 1 to 10 |  |  |
| CCNC(=O)C(=O)CC[C@H](NC(=O)c1nonc1N)C(=O)Nc1cccn(CC(=O)NC23CC(C2)C3)c1=O [Compound I-108, (S)-2-(4-amino-1,2,5-oxadiazole-3-carboxamido)-N1-(1-(2-(bicyclo[1.1.1]pentan-1-ylamino)-2-oxoethyl)-2-oxo-1,2-dihydropyridin-3-yl)-N6-ethyl-5-oxohexanediamide] | < 1 | 5.46 to 6.22 | < 1 |  |  |
| CCNC(=O)C(=O)CC[C@H](NC(=O)c1cncc(C(=O)O)c1)C(=O)Nc1cccn(CC(=O)NC(C)C23CC4CC(CC(C4)C2)C3)c1=O (some centres unmarked) [Compound I-66] | 3 to 5 | 6.22 to 6.82 | < 1 |  |  |
| CCNC(=O)C(=O)CC[C@H](NC(=O)[C@@H]1CCCCN1)C(=O)Nc1cccn(CC(=O)NC2C3CC4CC2CC(Cl)(C4)C3)c1=O (stereo partly drawn) [Compound I-60, (S)-N1-ethyl-N6-(1-(2-(5-chloroadamantane-2-amino)-2-oxoethyl)-2-oxo-1,2-dihydropyridin-3-yl)-2-oxo-5-((S)-piperidine-2-carboxamido)hexanediamide] | 1 to 3 | 6.22 to 6.82 | < 1 |  |  |
| CCNC(=O)C(=O)CC[C@H](NC(=O)c1cncn1C)C(=O)Nc1cccn(CC(=O)N(C)C23CC4CC(CC(C4)C2)C3)c1=O [Compound I-3, (S)-N1-ethyl-N6-(1-(2-(1-adamantyl(methyl)amino)-2-oxoethyl)-2-oxo-1,2-dihydropyridin-3-yl)-5-(1-methyl-1H-imidazole-5-carboxamido)-2-oxohexanediamide] | 1 to 3 | 5.46 to 6.22 | < 1 |  |  |
| CCNC(=O)C(=O)CC[C@H](NC(=O)c1oc2ccccc2c1C)C(=O)Nc1cccn(CC(=O)N[C@H]2C[C@H]3CC[C@]2(C)C3(C)C)c1=O [Compound I-69, (S)-N1-ethyl-5-(3-methylbenzofuran-2-carboxamido)-2-oxo-N6-(2-oxo-1-(2-oxo-2-((1R,2S,4R)-1,7,7-trimethylbicyclo[2.2.1]heptan-2-ylamino)ethyl)-1,2-dihydropyridin-3-yl)hexanediamide] | 3 to 5 | 6.22 to 6.82 | 1 to 10 |  |  |

More lines, now with the values ahead:

| logD ([1]; read-out: logD) | pIC50 [2] | Papp [3] [×10⁻⁶ cm/s] | logD [1] | Papp [4] | SMILES |
| --- | --- | --- | --- | --- | --- |
| < 1 | 6.22 to 6.82 | < 1 |  |  | CCNC(=O)C(=O)CC[C@H](NC(=O)c1cncn1C)C(=O)Nc1cccn(CC(=O)NC23CC4CC(C2)CC(C(=O)OC)(C4)C3)c1=O [Compound I-11, (S)-N1-ethyl-N6-(1-(2-(3-methyladamantane-3-carboxylate-1-amino)-2-oxoethyl)-2-oxo-1,2-dihydropyridin-3-yl)-5-(1-methyl-1H-imidazole-5-carboxamido)-2-oxohexanediamide] |
| 3 to 5 | 6.22 to 6.82 | 1 to 10 |  |  | CCNC(=O)C(=O)CC[C@H](NC(=O)c1csc2ccccc12)C(=O)Nc1cccn(CC(=O)NC23CCCC4CC(CCC42)C3)c1=O (stereo partly drawn) [Compound I-78, (S)-2-(benzo[b]thiophene-3-carboxamido)-N6-ethyl-N1-(1-(2-(4-homoisotwistane-3-amino)-2-oxoethyl)-2-oxo-1,2-dihydropyridin-3-yl)-5-oxohexanediamide] |
| 3 to 5 | > 6.82 | 1 to 10 |  |  | CCNC(=O)C(=O)CC[C@H](NC(=O)c1sc(Br)cc1Br)C(=O)Nc1cccn(CC(=O)NC2C3CC4CC(C3)CC2C4)c1=O (stereo partly drawn) [Compound I-44, (S)-2-(3,5-dibromothiophene-2-carboxamido)-N6-ethyl-N1-(1-(2-(2-adamantylamino)-2-oxoethyl)-2-oxo-1,2-dihydropyridin-3-yl)-5-oxohexanediamide] |
| 1 to 3 | 5.46 to 6.22 | < 1 |  |  | CCNC(=O)C(=O)CC[C@H](NC(=O)c1nccn1C)C(=O)Nc1cccn(CC(=O)NC23CC4CC(CC(CC)(C4)C2)C3)c1=O [Compound I-16, (S)-N1-ethyl-N6-(1-(2-(3-ethyladamantane-1-amino)-2-oxoethyl)-2-oxo-1,2-dihydropyridin-3-yl)-5-(1-methyl-1H-imidazole-2-carboxamido)-2-oxohexanediamide] |
| 3 to 5 | > 6.82 | 1 to 10 |  |  | CCNC(=O)C(=O)CC[C@H](NC(=O)c1cc(Br)sc1Br)C(=O)Nc1cccn(CC(=O)NC2C3CC4CC(C3)CC2C4)c1=O (stereo partly drawn) [Compound I-47, (S)-2-(2,5-dibromothiophene-3-carboxamido)-N6-ethyl-N1-(1-(2-(2-adamantylamino)-2-oxoethyl)-2-oxo-1,2-dihydropyridin-3-yl)-5-oxohexanediamide] |
| 1 to 3 | 6.22 to 6.82 | < 1 |  |  | CCNC(=O)C(=O)CC[C@H](NC(=O)c1cnn(C)c1)C(=O)Nc1cccn(CC(=O)NC23CC4CC5C2C[C@@H]2C[C@H]5C(C4)[C@H]3C2)c1=O [Compound I-79, (S)-N1-ethyl-N6-(1-(2-(diamantane-1-amino)-2-oxoethyl)-2-oxo-1,2-dihydropyridin-3-yl)-5-(1-methyl-1H-pyrazole-4-carboxamido)-2-oxohexanediamide] |
| 3 to 5 | > 6.82 | 1 to 10 |  |  | CCNC(=O)C(=O)CC[C@H](NC(=O)c1cc(Cl)sc1Cl)C(=O)Nc1cccn(CC(=O)NC2C3CC4CC(C3)CC2C4)c1=O (stereo partly drawn) [Compound I-46, (S)-2-(2,5-dichlorothiophene-3-carboxamido)-N6-ethyl-N1-(1-(2-(2-adamantylamino)-2-oxoethyl)-2-oxo-1,2-dihydropyridin-3-yl)-5-oxohexanediamide] |
|  |  |  | B (B: 1 ≤ logD < 3) | A (A: Papp < 1 × 10^−6 cm/s) | CCNC(=O)C(=O)CC[C@H](NC(=O)c1ccn(C)n1)C(=O)Nc1cccn(CC(=O)N[C@]23C[C@H]4C5CC6CC4[C@H](C2)C(C6)[C@H]5C3)c1=O (single isomer, unassigned) [Compound I-80] |
| 3 to 5 | 5.46 to 6.22 | < 1 |  |  | CCNC(=O)C(=O)CC[C@H](NC(=O)c1cn(CC(C)C)cn1)C(=O)Nc1cccn(CC(=O)NC23CC4CC(CC(CC)(C4)C2)C3)c1=O [Compound I-18, (S)-N1-ethyl-5-(1-isobutyl-1H-imidazole-4-carboxamido)-N6-(1-(2-(3-ethyladamantane-1-amino)-2-oxoethyl)-2-oxo-1,2-dihydropyridin-3-yl)-2-oxohexanediamide] |

Source: US20240270715A1, “INHIBITORS OF TRANSGLUTAMINASES” (ZEDIRA GMBH, priority 2021, published 2024)
